Several values for one entry are separate records, joined by “and”; a condition that tells them apart may be missing. Equal entries are not always repeated. Entries after “also recorded” stand apart in the source; their conditions may differ. Where two headings read alike, the source gives them in different places.
Columns and labels:
primary h-TM cells = format: cell-based, human; details: preliminary data, values rounded-off, read-out: Agonist potency at stimulating [Ca^2+]i mobilization in primary h-TM cells (EC50)
[1] = system: CHO-B2 cells (human cloned B2 receptor); format: cell-based, Chinese hamster ovary cells
CHO-B2 cells [2] = format: cell-based, Chinese hamster ovary cells, human cloned B2 receptor; details: 1 h at 37 °C; enzyme immunoassay; mean ± SEM, 3 to 6 experiments; read-out: PGE2 production in CHO-B2 cells (EC50)
CHO-B2 cells [3] = details: read-out: PGD2 production in CHO-B2 cells (EC50), 1 h at 37 °C, enzyme immunoassay
Method: Measurement of prostaglandins in human ciliary muscle and Chinese hamster ovary cells expressing B2 receptors
This involved stimulating h-CM cells and CHO-B2 cells with various concentrations of test peptides and measuring the release of various PGs in the extracellular medium. The concentration-dependent effects of these peptides on total PGs, and specifically PGE2, PGF2α, and PGD2 release, were studied. Cells were grown as a monolayer in a 24-well plate (precoated with fibronectin) to confluence and subsequently serum-starved overnight before the experiment. On the day of the experiment, just before the drug was added, the wells were aspirated completely, and 990 µl basal medium and 10 µl 100× series of concentrations of the different peptide agonists were added to achieve the desired final concentrations of each compound (e.g., 0.1 nM to 10 µM). […] At the end of the incubation period, the cellular supernatants were collected and stored at −80 °C or used immediately to determine the PG content. Cell supernatants were tested for total PG levels and sub-species of PGs (PGE2, PGF2α, and PGD2) using specific competitive enzyme immunoassays (Cayman Chemical Co., Ann Arbor, MI) as directed in the manufacturer’s recommended protocols using the supplied standards and reagents. The limits of detection for various PGs were as follows: total PGs=29 pg/ml; PGE2=15 pg/ml; PGF2α=9 pg/ml; PGD2=200 pg/ml.

[4] = system: ERK1/2 phosphorylation, h-CM cells; assay: ERK1/2 phosphorylation in h-CM cells (HTRF); format: cell-based, human; details: 100 nM
Method: (§1) Measurement of extracellular signal-regulated kinase-1/2 phosphorylation and pro-matrix metalloproteinase production
In the current assay, an homogeneous-time-resolved fluorescence (HTRF) assay (CisBio; Bedford, MA) was used. The HTRF assay is based on a sandwich immunoassay using an antiphospho-ERK1/2 antibody labeled with D2 and an anti-ERK1/2 antibody labeled with Eu^3+-Cryptate. In brief, h-CM cells (passage 7) were cultured in 96-well half-area white plates and incubated overnight, at 37 °C in CO2 atmosphere. […] Lysis buffer provided in the HTRF kit was used to lyse the cells at 23 °C with shaking for 30 min after the agonist treatment. HTRF conjugates containing phospho-ERK1/2 antibodies were then added to the lysates and incubated for an additional 2 h at 23 °C. The fluorescence signal was recorded using a Tecan M1000 fluorescence plate reader ([…]) at 620 nm for the donor and 665 nm for the acceptor.

pro-MMP-2, h-CM cells = assay: pro-MMP-2 release from h-CM cells; format: cell-based, human; details: BK 10 nM to 1 µM, 24 h at 37 °C; n=6
Method: as §1
(§2) The release of pro-MMP-1/2/3 in the extracellular medium of h-CM cells exposed to kinin’s, for 24 h at 37 °C [29, 30] was studied next. Thus, h-CM cells isolated from multiple human donor eyes were cultured as described above and then serum-starved for 24 h prior to the addition of any test compound. Cells were incubated with the vehicle or test compound for 24 hours at 37 °C after which the medium was collected and concentrated ten-fold using Centricon concentrators (Millipore Corp., Bellireca, MA). Equal volumes of this concentrate were loaded on 10% SDS-polyacrylamide gels (SDS-PAGE) and the proteins separated and transferred to nitrocellulose membranes. The membranes were then blocked with 5% non-fat dry milk (Bio-Rad Laboratories, Hercules, CA) followed by incubation with antibodies to pro-MMP-1, pro-MMP-2, or pro-MMP-3 for 12 hours at 4 °C with gentle shaking. After washing, these membranes were incubated with appropriate secondary antibodies (HRP-conjugated; dilution 1:3000) for 1 hour at 20 °C. […] For chemiluminescent detection, the membranes were treated with enhanced chemiluminescent reagent (Amersham Pharmacia, Piscataway, NJ) and the signal was quantified using a Bio-Rad Versadoc imaging system (Bio-Rad Laboratories, Hercules, CA).

pro-MMP-3, h-CM cells = assay: pro-MMP-3 release from h-CM cells; format: cell-based, human; details: BK 10 nM to 1 µM, 24 h at 37 °C; n=5
Method: as §1, §2

rabbit eyes = assay: IOP after intravitreal injection in Dutch-Belt rabbits; format: in vivo, pigmented Dutch-Belt rabbit; details: for IOP reduction, rabbit: 50 µg intravitreal, n=7–10
Method: Intraocular pressure measurements
To extend our in vitro observations of the high density of B2-receptor protein in human and cynomolgus monkey ciliary muscle and non-pigmented ciliary epithelium, we studied the effects of topically administered BK (100 µg total dose in a sterile vehicle) on IOP in normotensive and TM-ablated hypertensive eyes of these animals. […] However, since we could not subject the monkeys to additional studies involving BK delivery to the eye interior, it was decided that intravitreal (ivt) injection of BK into pigmented Dutch-Belt rabbits would be worth pursuing. Thus, after light corneal anesthesia with 0.1% proparacaine, basal IOPs were determined in up to 10 Dutch-Belt rabbits using an Alcon Pneumotonometer (Alcon Laboratories Inc., Fort Worth, TX). After this time, 50 µg of BK (B2 agonist) or Des-Arg^9-BK (B1 agonist) in 20 µl of sterile basal salt solution (BSS plus), or just BSS plus vehicle, was injected ivt into one eye of each rabbit and the IOP determined at various times thereafter. Authors confirm adherence to the ARVO Statement for Animals in Ophthalmic and Vision Research, with all animal studies conducted according the guidelines for Animal Care and Use at Alcon Research Ltd.
Figure 8 Time-course of changes in rabbit intraocular pressure (IOP) with different kinin peptide agonists. Three groups of Dutch-Belt rabbits (n=7–10/group) were injected ivt in one eye with either vehicle or 50 µg of BK or 50 µg of Des-Arg^9-BK dissolved in the vehicle and the IOP monitored over time. Data are mean±SEM.

B1 subtype = system: B1 subtype; design: method as in PMID 1313585; details: ref [1]; cited from earlier work
h-TM cells = details: ref [23]; cited from earlier work

Substance: H-RPPGFSPFR-OH [BK]
- EC50 (primary h-TM cells): 1 nM
- EC50 ([1]; 1 h at 37 °C, enzyme immunoassay, mean ± SEM, 3 to 6 experiments, read-out: Total PGs production in CHO-B2 cells (EC50)): 0.0263 ± 0.0066 nM
- BK-induced total PGs production/secretion, CHO-B2 cells ([1]; n=6): 913.6 ± 47.6 pg/mL and 913.6 pg/mL
- Elevation in extracellular PGs, CHO-B2 cells ([1]; relative to basal levels): 4.9 fold
- EC50 (CHO-B2 cells [2]): 0.0328 ± 0.00903 nM
- EC50 (CHO-B2 cells [3]; first of two values in cell): 0.0113 nM
- EC50 (CHO-B2 cells [3]; second of two values in cell): 0.181 nM
- Increase in ERK1/2 phosphorylation (abstract) [4]: twofold
- pro-MMP-2 release vs basal level (pro-MMP-2, h-CM cells): 1.67±0.25 fold
- pro-MMP-3 release vs basal level (pro-MMP-3, h-CM cells): 1.41±0.09 fold
- IOP reduction, rabbit (rabbit eyes; 5 h post-injection): 22.9±7.3%
- IOP reduction, rabbit (rabbit eyes; 8 h post-injection (maximal)): 37.0±5.6%
- Effect on rabbit IOP (rabbit eyes; BK 50 µg intravitreal, 5–8 h post injection): time-dependent reduction in IOP; also recorded: robust lowering of the IOP
- Affinity for B1 subtype (B1 subtype): low affinity
- ERK1/2 phosphorylation in h-TM cells (h-TM cells): stimulate ERK1/2 phosphorylation

From article PMC3693772, “Protein expression, biochemical pharmacology of signal transduction, and relation to intraocular pressure modulation by bradykinin B2 receptors in ciliary muscle” (Molecular Vision, 2013)
